Results: patent US8188101B2 (AstraZeneca AB, priority 2008, dated 2012)
pIC50: −log10 of the molar value.

Test system: Aβ42 release
Test: Aβ release in cells stably expressing APPswe, Meso Scale Discovery electrochemiluminescence assay
Format: cell-based, Human
Details: Homo sapiens, SH-SY5Y, HEK or SH-SY5Y cells stably expressing APPswe, 4-6 hours incubation with test compound
Method in brief: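 HEK or SH-SY5Y cells stably expressing APPswe, plated 15-24 h, then exposed to compound (diluted ×200 into fresh medium) for 4-6 h at 37 °C. Secreted Aβ42 in medium quantified by Meso Scale Discovery electrochemiluminescence with specific antibodies; cytotoxicity checked by cellular ATP content.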

| SMILES | pIC50 |
| --- | --- |
| CCN(CC1CCCO1)c1nc(Nc2ccc(-n3ccnc3C)cc2)nc2c1CN(CCO)CC2 (stereo not drawn) [Example 77, 2-(4-(Ethyl((tetrahydrofuran-2-yl)methyl)amino)-2-(4-(2-methyl-1H-imidazol-1-yl)phenylamino)-7,8-dihydropyrido[4,3-d]pyrimidin-6(5H)-yl)ethanol] | 6.20 |
| COC(=O)N1CCc2nc(Nc3ccc(-c4cnco4)cc3)nc(N(CCO)c3ccccc3)c2C1 [Example 23, Methyl 4-((2-hydroxyethyl)(phenyl)amino)-2-(4-(oxazol-5-yl)phenylamino)-7,8-dihydropyrido[4,3-d]pyrimidine-6(5H)-carboxylate] | 5.20 |
| Cc1nccn1-c1ccc(Nc2nc3c(c(Cc4ccccc4)n2)C[S+]([O-])CC3)cc1 (stereo not drawn) [Example 114, 4-Benzyl-N-[4-(2-methyl-1H-imidazol-1-yl)phenyl]-7,8-dihydro-5H-thiopyrano[4,3-d]pyrimidin-2-amine 6-oxide] | 5.80 |
| COc1cccc(Cc2nc(Nc3ccc(-n4ccnc4C)cc3)nc3c2CN(C(C)=O)CC3)c1 [Example 97, 1-(4-(3-Methoxybenzyl)-2-(4-(2-methyl-1H-imidazol-1-yl)phenylamino)-7,8-dihydropyrido[4,3-d]pyrimidin-6(5H)-yl)ethanone] | 6.20 |
| c1ccc(Nc2nc(Nc3ccc(-c4cnco4)cc3)nc3c2CNCC3)cc1 [Example 3, N2-(4-(Oxazol-5-yl)phenyl)-N4-phenyl-5,6,7,8-tetrahydropyrido[4,3-d]pyrimidine-2,4-diamine] | 6.00 |
| Cc1nccn1-c1ccc(Nc2nc3c(c(Cc4ccc(F)cc4)n2)C[S+]([O-])CC3)cc1 (stereo not drawn) [Example 64, 4-(4-Fluorobenzyl)-N-[4-(2-methyl-1H-imidazol-1-yl)phenyl]-7,8-dihydro-5H-thiopyrano[4,3-d]pyrimidin-2-amine 6-oxide] | 6.00 |
| CC(=O)N1CCc2nc(Nc3ccc(-c4cnco4)cc3)nc(N3CCCCC3CO)c2C1 (stereo not drawn) [Example 94, 1-(4-(2-(Hydroxymethyl)piperidin-1-yl)-2-(4-(oxazol-5-yl)phenylamino)-7,8-dihydropyrido[4,3-d]pyrimidin-6(5H)-yl)ethanone] | 5.30 |
| CC(=O)N1CCc2nc(Nc3ccc(-c4cnco4)cc3)nc(N(CCC#N)C3CC3)c2C1 [Example 31, 3-((6-Acetyl-2-(4-(oxazol-5-yl)phenylamino)-5,6,7,8-tetrahydropyrido[4,3-d]pyrimidin-4-yl)(cyclopropyl)amino)propanenitrile] | 6.10 |
| Cc1nccn1-c1ccc(Nc2nc3c(c(N(CCC#N)C4CC4)n2)CN(C)CC3)cc1 [Example 78, 3-(Cyclopropyl(6-methyl-2-(4-(2-methyl-1H-imidazol-1-yl)phenylamino)-5,6,7,8-tetrahydropyrido[4,3-d]pyrimidin-4-yl)amino)propanenitrile] | 6.00 |
| Cc1nccn1-c1ccc(N(C)c2nc3c(c(N4c5ccccc5C[C@H]4CO)n2)CN(C)CC3)cc1 [Example 72] | 6.20 |
| CC(=O)c1cccc(Nc2nc(Nc3ccc(-c4cnco4)cc3)nc3c2CN(C(C)=O)CC3)c1 [Example 33, 1-(3-(6-Acetyl-2-(4-(oxazol-5-yl)phenylamino)-5,6,7,8-tetrahydropyrido[4,3-d]pyrimidin-4-ylamino)phenyl)ethanone] | 5.90 |
| CC(=O)N1CCc2nc(Nc3ccc(-c4cnco4)cc3)nc(N(CCO)c3ccccc3)c2C1 [Example 28, 1-(4-((2-Hydroxyethyl)(phenyl)amino)-2-(4-(oxazol-5-yl)phenylamino)-7,8-dihydropyrido[4,3-d]pyrimidin-6(5H)-yl)ethanone] | 6.10 |
| CC(=O)N1CCc2nc(Nc3ccc(-n4ccnc4C)cc3)nc(CC3CCOCC3)c2C1 [Example 63, 1-(2-(4-(2-Methyl-1H-imidazol-1-yl)phenylamino)-4-((tetrahydro-2H-pyran-4-yl)methyl)-7,8-dihydropyrido[4,3-d]pyrimidin-6(5H)-yl)ethanone] | 4.30 |
| COc1cc(Nc2nc3c(c(C(C)n4nc(C)cc4C)n2)CN(C(C)=O)CC3)ccc1-n1cnc(C)c1 (stereo not drawn) [Example 108, 1-(4-(1-(3,5-Dimethyl-1H-pyrazol-1-yl)ethyl)-2-(3-methoxy-4-(4-methyl-1H-imidazol-1-yl)phenylamino)-7,8-dihydropyrido[4,3-d]pyrimidin-6(5H)-yl)ethanone] | 6.30 |
| CC(=O)N1CCc2nc(Nc3ccc(-c4cnco4)cc3)nc(N(C)CC(O)c3ccccc3)c2C1 (stereo not drawn) [Example 34, 1-(4-((2-Hydroxy-2-phenylethyl)(methyl)amino)-2-(4-(oxazol-5-yl)phenylamino)-7,8-dihydropyrido[4,3-d]pyrimidin-6(5H)-yl)ethanone] | 5.50 |

Continued by rising pIC50, values first:

| pIC50 | SMILES |
| --- | --- |
| 6.30 | CC(=O)N1CCc2nc(Nc3ccc(-n4ccnc4C)cc3)nc(CCc3cccc(F)c3)c2C1 [Example 60, 1-(4-(3-Fluorophenethyl)-2-(4-(2-methyl-1H-imidazol-1-yl)phenylamino)-7,8-dihydropyrido[4,3-d]pyrimidin-6(5H)-yl)ethanone] |
| 6.40 | Cc1nccn1-c1ccc(Nc2nc3c(c(Cc4ccccc4F)n2)CN(CCO)CC3)cc1 [Example 56, 2-(4-(2-Fluorobenzyl)-2-(4-(2-methyl-1H-imidazol-1-yl)phenylamino)-7,8-dihydropyrido[4,3-d]pyrimidin-6(5H)-yl)ethanol] |
| 6.40 | Cc1nccn1-c1ccc(Nc2nc3c(c(N(C)C4CCCCC4)n2)CN(C)CC3)cc1 [Example 11, N4-Cyclohexyl-N4,6-dimethyl-N2-(4-(2-methyl-1H-imidazol-1-yl)phenyl)-5,6,7,8-tetrahydropyrido[4,3-d]pyrimidine-2,4-diamine] |
| 6.50 | CN1CCc2nc(Nc3ccc(-c4cnco4)cc3)nc(Nc3ccccc3)c2C1 [Example 4, 6-Methyl-N2-(4-(oxazol-5-yl)phenyl)-N4-phenyl-5,6,7,8-tetrahydropyrido[4,3-d]pyrimidine-2,4-diamine] |
| 6.70 | Cc1ccc(Cc2nc(Nc3ccc(-n4ccnc4C)cc3)nc3c2CN(CCO)CC3)cc1 [Example 48, 2-(2-(4-(2-Methyl-1H-imidazol-1-yl)phenylamino)-4-(4-methylbenzyl)-7,8-dihydropyrido[4,3-d]pyrimidin-6(5H)-yl)ethanol] |
| 7.00 | COc1cc(Nc2nc3c(c(C(C)(C)O)n2)COCC3)ccc1-n1cnc(C)c1 [Example 103, 2-(2-(3-Methoxy-4-(4-methyl-1H-imidazol-1-yl)phenylamino)-7,8-dihydro-5H-pyrano[4,3-d]pyrimidin-4-yl)propan-2-ol] |
| 7.10 | Cc1nccn1-c1ccc(Nc2nc(CCC3CCCCC3)c3c(n2)CCN(CCO)C3)cc1 [Example 47, 2-(4-(2-Cyclohexylethyl)-2-(4-(2-methyl-1H-imidazol-1-yl)phenylamino)-7,8-dihydropyrido[4,3-d]pyrimidin-6(5H)-yl)ethanol] |
| 7.40 | COc1cccc(Cc2nc(Nc3ccc(-n4cnc(C)c4)c(OC)c3)nc3c2CN(C)CC3)c1 [Example 95, N-(3-Methoxy-4-(4-methyl-1H-imidazol-1-yl)phenyl)-4-(3-methoxybenzyl)-6-methyl-5,6,7,8-tetrahydropyrido[4,3-d]pyrimidin-2-amine] |
| 7.80 | COc1cc(Nc2nc3c(c(Cc4ccccc4)n2)CN(CC#N)CC3)ccc1-n1cnc(C)c1 [Example 105, 2-(4-Benzyl-2-(3-methoxy-4-(4-methyl-1H-imidazol-1-yl)phenylamino)-7,8-dihydropyrido[4,3-d]pyrimidin-6(5H)-yl)acetonitrile] |
